From patent publication US20120003262A1, “ANTICANCER HEALTH FOOD CONTAINING PHELLINUS LINTEUS AND VEGETABLE WORMS” (HAN KOOK SHIN YAK CO., LTD., priority 2008, published 2012)

Tested on: lung cancer cell (Lewis Lung Carcinoma: LLC)
Test: Anticancer animal test: Lewis Lung Carcinoma transplanted to mice, tumor volume and weight after 14 days of administration
Type: in vivo, mouse
Conditions: LLC-transplanted BDF1 male mice, extracts 200 mg/kg orally daily, Taxol 50 mg/kg intraperitoneally daily, for 14 days
Method: In order to test an anticancer effect of the mixture extract of Phellinus linteus and vegetable worms, from Examples 1 to 7, and Comparative 1, an animal test was carried out. A mouse used for the experiment was bought from Jung Ang Lab. Animal Inc. (black, Japan, BDF1 male, weight: 20±2 g). The breeding temperature was 22±2° C., and solid feed stuff (Samyang feed Co.) and water were sufficiently supplied. […]
A solvent for the extraction was an extra pure reagent (E.P.). For the test sample, a sterilized saline solution manufactured by Daihan Pharm Co. Ltd. was used. For the culture of a cancer cell, an RPMI 1640 medium (WelGENE Inc.) was used, and Trypsin-EDTA was manufactured by GIBCO. Besides, a test tube required for cell culture, a culture flask, and a filter for obtaining a cancer cell were manufactured by Falcon. Devices used for cancer transplantation were disinfected at 120° C. for 30 min, and a cancer volume was measured by a Digital Caliper.
A lung cancer cell (Lewis Lung Carcinoma: LLC) used for the experiment was distributed from the Korea Research Institute of Bioscience and Biotechnology. The lung cancer cell (Lewis Lung Carcinoma: LLC) was cultured by RPMI 1640 medium added with 10% FBS in a 37° C. incubator, and for the detachment from an attachment surface, Trypsin-EDTA was used. When the cells are filled up in a 200 ml culture flask, they were transplanted to two animals. After the cells were grown in vivo, they were used for an animal test.
In an anticancer animal test, a tumor grown up to a size of about 15×15×15 mm^3 was separated, and a cancer cell was separated from other cells by using a filer (Falcon). […] From the day after the cancer transplantation, for 14 days, powder obtained by mixing Phellinus linteus and vegetable worms at a weight ratio of 1:1 (Example 1), 1:3(Example 2), 3:1(Example 3), 1:5(Example 4), 5:1(Example 5), 1:10(Example 6), 10:1(Example 7) was orally administered daily to a black mouse (Japan) in an amount of 200 mg/kg. Meanwhile, as a positive control group, Taxol was intraperitoneally injected daily in an amount of 50 mg/kg once a day for 14 days. After 14 days, the administration of the extract powder of Phellinus linteus and vegetable worms was stopped, and a Digital Caliper was used to measure the results. […] After the measurement of a tumor volume, a tumor lump was obtained through an operation and its weight was measured. An inhibition ratio of tumor weight (IRTW) was calculated by (TW of control−TW of test)×100/TW of control.
All data were indicated by mean±S.D., and the analysis was carried out by Anova test. Also, when p values are 0.05 or less, they were determined to have significance.

Question: What does the source list for `CC(=O)O[C@H]1C(=O)[C@@]2(C)[C@H]([C@H](OC(=O)c3ccccc3)[C@]3(O)C[C@H](OC(=O)[C@H](O)[C@@H](NC(=O)c4ccccc4)c4ccccc4)C(C)=C1C3(C)C)[C@]1(OC(C)=O)CO[C@@H]1C[C@@H]2O` [Taxol]?
Answer: Tumor volume inhibiting ratio ((TV of control−TV of test)×100/TV of control): 67%; Tumor weight inhibiting ratio ((TW of control−TW of test)×100/TW of control): 64%; Tumor size (mean±S.D., 5 mice): 649 ± 182 mm^3; Tumor weight (mean±S.D., 5 mice): 0.61 ± 0.3 g
